How the values were obtained:
B16 melanoma = experiment: In-vivo tumor uptake / biodistribution, B16 melanoma-bearing mice; details: 1 h, B16/F0 melanoma mice
Experimental: (§1) To study the tumor uptake of radiolabeled metal complexes, in vivo, biodistribution experiments at 1 h after their administration were carried out in C57B16 male mice with palpable B16 melanoma nodules and male nude mice bearing DU145 human prostate carcinoma in the hind limb.
(§2) The biodistribution data including tumor/nontumor (T/NT) ratios for selected organs are summarized in Table 1 and 2 as percentage injected dose per gram (% ID/g).

[1] = tested on: DU145 human prostate carcinoma; experiment: In-vivo tumor uptake / biodistribution, DU145 tumor-bearing nude mice; details: 1 h
Experimental: as §1, §2

α1 receptor = experiment: Alpha-1 receptor competition binding assay with [3H]-Prazosin; details: apparent Ki, rat frontal cortex
Experimental: The in vitro α1 receptor binding affinities of rhenium coordinated complexes were determined in a competition assay using rat frontal cortex and high-affinity α1 ligand [^3H]-Prazosin (80 Ci/mmol, NEN Life Science Inc., Cambridge, Mass.). See, Eur. J. Nucl. Med. 2002, 29, 82-87.
(§3) The frontal cortex of rat brain was prepared as described above and store at −70° C. until used in the binding assays. Ten concentrations of the nonradioactive rhenium complexes ranging from 1×10^−10 to 1×10^−3 and protein samples (0.15 mg of membrane protein) were incubated with 1.5 nM [^3H]-Prazosin in a total volume of 0.25 mL of Tris-HCl (50 mM, pH 7.4, 10 mM MgSO4). Incubations were carried out for 60 min at 25° C. All assays were terminated by dilution with 5 mL of ice-cold Tris-HCl (10 mM), pH 7.4, and solution were filtered through glass-fiber filters (Whatman GF/F; presoaked in 0.5% polyethyleneimine for 30 min at 25° C.). Filters were then washed three times with 5 mL of ice-cold Tris-HCl (50 mM, pH 7.4), and counted in Hionic-Fluor cocktail (Packard, Groningen, the Netherlands). The corresponding IC50 values were determined with Origin 6.0 software (OriginLab, Northampton, Mass.) and were used for the calculation of the apparent Ki values with the Cheng-Prusoff equation. See, Biocheni. Pharmacol. 1973, 22, 3099-3108.

σ1 receptor = target: T1, σ1 receptor (Cavia porcellus, UniProt Q60492); experiment: Sigma-1 receptor competition binding assay with [3H]-(+)-pentazocine; design: species or system guinea pig; details: apparent Ki (Cheng-Prusoff), brain membranes
T1 construct: The membranes were prepared from guinea pig brain (minus cerebellum) as described above; from tissue; host or cells: guinea pig brain (minus cerebellum) membranes
Experimental: The in vitro σ1 receptor binding affinities of rhenium coordinated complexes were determined in a competition assay using […] and high-affinity σ1 ligand [3H]-(+)-pentazocine (28 Ci/mmol, NEN Life Science Inc., Cambridge, Mass.). See, Mol. Neuropharmacol. 1993, 3, 117-126.
The membranes were prepared from guinea pig brain (minus cerebellum) as described above and stored at −70 ° C. Twelve concentrations of the nonradioactive rhenium complexes ranging from 1×10^−11 to 1×10^−3 and protein samples (0.15 mg of membrane protein) were incubated with […] [3H]-(+)-pentazocine in a total volume of 0.25 mL of Tris-HCl (50 mM, pH 8.0). Incubations were carried out for 120 min at 25° C. All assays were terminated by dilution with 5 mL of ice-cold Tris-HCl (10 mM), pH 8.0, and solution were filtered through glass-fiber filters (Whatman GF/F; presoaked in 0.5% polyethyleneimine for 30 min at 25° C.). Filters were then washed three times with 5 mL of ice-cold Tris-HCl (50 mM, pH 8.0), and counted in Hionic-Fluor cocktail (Packard, Groningen, the Netherlands). The corresponding IC50 values were determined with Origin 6.0 software (OriginLab, Northampton, Mass.) and were used for the calculation of the apparent Ki values with the Cheng-Prusoff equation. See, Biochem. Pharmacol. 1973, 22, 3099-3108.

σ2 receptor = target: T2, σ2 receptor (Rattus norvegicus, UniProt Q5U3Y7); experiment: σ2 receptor competition binding assay with [3H]-DTG, σ1 masked; details: apparent Ki, rat liver membranes
T2 construct: Rat liver membranes were prepared from male Sprague-Dawley rat livers as previously described; from tissue; host or cells: male Sprague-Dawley rat liver membranes
T2 sequence (Q5U3Y7 1-176): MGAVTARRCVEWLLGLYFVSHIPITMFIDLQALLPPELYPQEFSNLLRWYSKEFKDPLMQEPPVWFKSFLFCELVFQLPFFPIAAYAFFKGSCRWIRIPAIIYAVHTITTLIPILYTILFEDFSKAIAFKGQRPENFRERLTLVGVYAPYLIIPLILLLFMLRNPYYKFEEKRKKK
Experimental: Rat liver membranes were prepared from male Sprague-Dawley rat livers as previously described (Eur. J. Pharmacol.—Mol. Pharmacol. Sect. 1994, 268, 9-18). The in vitro σ2 receptor binding affinities of rhenium coordinated complexes were determined in a competition assay using rat livers and [^3H]-DTG (31 Ci/mmol, NEN Life Science Inc., Cambridge, Mass.) as radioligand in the presence of 10 μM 1-pyrrolidinylethyl 3,4-dichlorophenylacetate oxalate (ACT915 oxalate) to mask σ1 receptors (Bioorg. & Med. Chem. Lett. 2000, 10, 17-18). Competition assays were performed with twelve concentrations of the nonradioactive rhenium complexes ranging from 1×10^−10 to 1×10^−3 and protein samples (0.15 mg of membrane protein) in a total volume of 0.25 mL of Tris-HCl (50 mM, pH 8.0) for 120 min at 25° C. All other manipulations and data analysis were performed as described vide supra for the σ1-receptor assays.

[2] = Determination of lipophilicity and pKa values by HPLC; assay type: physicochemical
Experimental: The lipophilicity and pKa values of all complexes were determined using HPLC methods described previously (Stylli, C.; Theobald, A. E. Determination of Ionization Constants of Radiopharmaceuticals in Mixed Solvents by HPLC. Appl. Radiat. Isot., 1987, 38, 701-708; Johannsen, B.; Scheunemann, M.; Spies, H.; Brust, P.; Wober, J.; Syhre, R.; Pietzsch, H.-J. Technetium(V) and Rhenium(V) Complexes for 5-HT2A Serotonin Receptor Binding: Structure-Affinity Considerations. Nucl. Med. Biol., 1996, 23, 429-438; and Johannsen, B.; Berger, R.; Brust, P.; Pietzsch, H.-J.; Scheunemann, M.; Seifert, S.; Spies, H.; Syhre, R. Structural Modification of Receptor-Binding Technetium-99m Complexes in Order to Improve Brain Uptake. Eur. J. Nucl. Med. 1997, 24, 316-319). […] The mobile phase was acetonitrile:phosphate buffer (0.01 M), 3:1, v/v, with the aqueous buffer adjusted to the desired pH between 3 and 11. The capacity factor (k′) was calculated for each determination (Braumann, T.; Grimme, L. H. Determination of Hydrophobic Parameters for Pyridazinone Herbicides by Liquid-Liquid Partition and Reversed-Phase High-Performance Liquid Chromatography. J. Chromatogr. 1981, 206, 7-15; El Tayer, N.; van der Waterbeemd, H.; Testa, B. Lipophilicity Measurements of Protonated Basic Compounds by Reversed-Phase High-Performance Liquid Chromatography. II. Procedure for the Determination of a Lipophilic Index Measured by Reversed-Phase High Performance Liquid Chromatography. J. Chromatogr. 1985, 320, 305-312; and Minick, D. J.; Frenz, J. H.; Patrick, M. A.; Brent, D. A. A Comprehensive Method for Determining Hydrophobicity Constants by Reversed-Phase High-Performance Liquid Chromatography. J. Med. Chem., 1988, 31, 1923-1933) and the partition coefficient at a given pH (D or logD) were calculated from the equation: log D=a log k′+b where the parameters a and b are predetermined using standard amines. The fitted points of inflection from the sigmoidal DHPLC/pH profiles permit calculation of the pKHPLC(Stylli, C.; Theobald, A. E. Determination of Ionization Constants of Radiopharmaceuticals in Mixed Solvents by HPLC. Appl. Radiat. Isot., 1987, 38, 701-708). The aqueous ionization constants pKa were calculated from the pKHPLC values after correction with a predetermined correction factor obtained using standard amine compounds. Log P values of the neutral complexes were estimated from the respective upper plateau of the sigmoidal log D/pH curve in the alkaline range.

5HT1A receptor = target: T3, 5HT1A receptor (Rattus norvegicus, UniProt P19327); experiment: 5HT1A receptor competition binding assay with [3H]-8-OH-DPAT; details: apparent Ki, rat hippocampus
T3 construct: The brains were rapidly removed, and hippocampus, frontal cortex, hypothalamus, and striatum were hand-dissected on ice; from tissue; host or cells: male Sprague-Dawley rat hippocampus membranes
T3 sequence (P19327 1-422): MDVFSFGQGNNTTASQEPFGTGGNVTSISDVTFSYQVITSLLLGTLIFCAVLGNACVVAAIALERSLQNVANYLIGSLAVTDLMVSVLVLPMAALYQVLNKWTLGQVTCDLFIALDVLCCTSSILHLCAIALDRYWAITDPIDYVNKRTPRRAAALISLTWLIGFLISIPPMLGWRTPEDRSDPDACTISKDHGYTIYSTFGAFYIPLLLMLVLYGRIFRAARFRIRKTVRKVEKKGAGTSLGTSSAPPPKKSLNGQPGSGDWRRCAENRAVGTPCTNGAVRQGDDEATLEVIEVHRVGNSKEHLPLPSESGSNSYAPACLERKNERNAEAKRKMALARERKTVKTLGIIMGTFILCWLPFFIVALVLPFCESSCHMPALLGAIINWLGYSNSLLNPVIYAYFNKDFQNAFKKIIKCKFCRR
Experimental: The in vitro 5HT1A binding affinities of rhenium coordinated complexes were determined in a competition assay using rat hippocampus and high-affinity 5HT1A-ligand [^3H]-8-OH-DPAT (135 Ci/mmol, NEN Life Science Inc., Cambridge, Mass.). See, Brain Res. 1995, 673, 217-225.
Male Sprague-Dawley rats (weighing 150-170 g) were sacrificed using anesthesia agent isoflurane. The brains were rapidly removed, and hippocampus, frontal cortex, hypothalamus, and striatum were hand-dissected on ice and stored at −70° C. Tissue was thawed at room temperature and homogenized using a Brinkmann Polytron tissue disrupter in 50 volumes (wt/vol) of ice-cold 50 mM Tris-HCl buffer (pH 7.4). The suspension was centrifuged twice at 27,000 g for 20 min at 4° C. The membrane pellets were resuspended in 50 volumes of (wt/vol) Tris-HCl buffer and incubated at 37° C. for 20 min in a water bath, before a final centrifugation step (27,000 g; 20 min; 4° C.). The final tissue pellets were stored at −70° C. until assayed.
as §3, with “Twelve” for “The frontal cortex of rat brain was prepared as described above and store at −70° C. until used in the binding assays. Ten”, “1×10^−11” for “1×10^−10”, “1×10^−4” for “1×10^−3”, “[^3H]-8-OH-DPAT” for “[^3H]-Prazosin”, “Biochem.” for “Biocheni.”

T1 sequence (Q60492 whole entry): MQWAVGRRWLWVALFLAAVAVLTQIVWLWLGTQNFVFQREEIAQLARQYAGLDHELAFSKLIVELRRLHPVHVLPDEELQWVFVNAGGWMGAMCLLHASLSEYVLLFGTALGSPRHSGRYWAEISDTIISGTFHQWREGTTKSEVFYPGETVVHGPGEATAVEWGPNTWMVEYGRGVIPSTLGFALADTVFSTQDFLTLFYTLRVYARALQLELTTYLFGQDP

O=C1CN(CCCN2CCC(Cc3ccccc3)CC2)CC[S][99Tc]2(=[O])[S]CC[N]12 (centres unmarked) [Re 99mTc-15]
Tumor/Blood ratio (B16 melanoma): 7.47
Tumor/Liver ratio (B16 melanoma): 0.21
Tumor/Lung ratio (B16 melanoma): 0.31
Tumor/Muscle ratio (B16 melanoma): 3.57
Blood %ID/g (B16 melanoma; blood): 0.44 %ID/g
Brain %ID/g (B16 melanoma; brain): 0.48 %ID/g
Heart %ID/g (B16 melanoma; heart): 1.87 %ID/g
Intestine %ID/g (B16 melanoma; intestine): 14.38 %ID/g
Kidney %ID/g (B16 melanoma; kidney): 7.66 %ID/g
Liver %ID/g (B16 melanoma; liver): 10.23 %ID/g
Lung %ID/g (B16 melanoma; lung): 15.60 %ID/g
Muscle %ID/g (B16 melanoma; muscle): 0.90 %ID/g
Skin %ID/g (B16 melanoma; skin): 1.21 %ID/g
Spleen %ID/g (B16 melanoma; spleen): 5.95 %ID/g
Stomach %ID/g (B16 melanoma; stomach): 6.81 %ID/g
Tumor %ID/g (B16 melanoma; tumor): 3.18 %ID/g
Tumor/Blood ratio [1]: 7.93
Tumor/Liver ratio [1]: 0.21
Tumor/Lung ratio [1]: 0.25
Tumor/Muscle ratio [1]: 2.33
Blood %ID/g ([1]; blood): 0.31 %ID/g
Brain %ID/g ([1]; brain): 0.51 %ID/g
Heart %ID/g ([1]; heart): 1.82 %ID/g
Intestine %ID/g ([1]; intestine): 20.94 %ID/g
Kidney %ID/g ([1]; kidney): 7.92 %ID/g
Liver %ID/g ([1]; liver): 12.06 %ID/g
Lung %ID/g ([1]; lung): 9.96 %ID/g
Muscle %ID/g ([1]; muscle): 1.06 %ID/g
Skin %ID/g ([1]; skin): 1.76 %ID/g
Spleen %ID/g ([1]; spleen): 7.56 %ID/g
Stomach %ID/g ([1]; stomach): 5.26 %ID/g
Tumor %ID/g ([1]; tumor): 2.46 %ID/g

O=C1CN(CCCN2CCC(O)(c3ccc(Cl)cc3)CC2)CC[S][Re]2(=[O])[S]CC[N]12 (centres unmarked) [Re-18]
Ki (α1 receptor): 980 ± 180 nM
Ki (σ1 receptor): 2960 nM
Ki (σ2 receptor): 528 ± 111 nM
k' (pH = 7.4) ([2]; HPLC capacity factor at pH 7.4): 29.7
k' (Max) ([2]; HPLC capacity factor, maximum): 37.5
pKa (Corrected) ([2]; HPLC method, corrected with standard amines): 7.26

O=C1CN(CCCN2CCC(c3ccccc3)CC2)CC[S][Re]2(=[O])[S]CC[N]12 (centres unmarked) [Re-21]
Ki (5HT1A receptor): 55.7 ± 8.3 nM
Ki (α1 receptor): 39 ± 4 nM
Ki (σ1 receptor): 553 nM
Ki (σ2 receptor): 84.6 ± 7.9 nM

O=C(CN1CC[S][Re]2(=[O])[S]CC[N]2C(=O)C1)NC1CCN(Cc2ccccc2)CC1 (centres unmarked) [Re-22]
Ki (σ1 receptor): 5510 nM
Ki (σ2 receptor): 4710 ± 986 nM

Reference: patent US20060159617A1, “Small technetium-99m and rhenium labeled agents and methods for imaging tissues, organs and tumors” (priority 2002, published 2006)
